# Laboratory results taken from PubChem BioAssay AID1963866 (Molecular Pharmacology Branch, DTP, NCI, 2024).
# Tested on: PDC KRAS tumor spheroids with HUVEC/MSC, viability
# Test: Anticancer human tumor 349418-098-R-PDC patient-derived lung adenocarcinoma cell line growth inhibition [KRAS2]
# Conditions: for IC50: curve of first compound; for viability, T/C: stronger effect = lower value
# Procedure, shortened: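 KRAS-mutant tumor cells were grown as spheroids with HUVEC endothelial cells and human MSCs as stroma. Targeted agents were tested alone and with KRAS pathway inhibitors. Doses started at or near clinical Cmax, or 10 microM, descending half-log.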
# [1] = second compound 0.1 µM, first compound 0.0316 µM
# [2] = second compound 0.1 µM, first compound 0.1 µM
# [3] = second compound 0.1 µM, first compound 0.316 µM
# [4] = second compound 0.1 µM, first compound 1 µM
# [5] = second compound 0.1 µM, first compound 3.16 µM
# [6] = second compound 0.316 µM, first compound 0.0316 µM
# [7] = second compound 0.316 µM, first compound 0.1 µM
# [8] = second compound 0.316 µM, first compound 0.316 µM
# [9] = second compound 0.316 µM, first compound 1 µM
# [10] = second compound 0.316 µM, first compound 3.16 µM
# [11] = second compound 1 µM, first compound 0.0316 µM
# [12] = second compound 1 µM, first compound 0.1 µM
# [13] = second compound 1 µM, first compound 0.316 µM
# [14] = second compound 1 µM, first compound 1 µM
# [15] = second compound 1 µM, first compound 3.16 µM
# [16] = second compound 3.16 µM, first compound 0.0316 µM
# [17] = second compound 3.16 µM, first compound 0.1 µM
# [18] = second compound 3.16 µM, first compound 0.316 µM
# [19] = second compound 3.16 µM, first compound 1 µM
# [20] = second compound 3.16 µM, first compound 3.16 µM
# [21] = second compound 10 µM, first compound 0.0316 µM
# [22] = second compound 10 µM, first compound 0.1 µM
# [23] = second compound 10 µM, first compound 0.316 µM
# [24] = second compound 10 µM, first compound 1 µM
# [25] = second compound 10 µM, first compound 3.16 µM
# [26] = second compound 0.1 µM, first compound 10 µM
# [27] = second compound 0.316 µM, first compound 10 µM
# [28] = second compound 1 µM, first compound 10 µM
# [29] = second compound 3.16 µM, first compound 10 µM
# [30] = second compound 10 µM, first compound 10 µM
# 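Further: spheroids exposed to compounds for seven days before readout.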
SMILES,IC50 (second compound 0.1 µM) [nM],IC50 (second compound 0.316 µM) [nM],IC50 (second compound 1 µM) [nM],IC50 (second compound 3.16 µM) [nM],IC50 (second compound 10 µM) [nM],"viability, T/C [1] [%]","viability, T/C [2] [%]","viability, T/C [3] [%]","viability, T/C [4] [%]","viability, T/C [5] [%]","viability, T/C [6] [%]","viability, T/C [7] [%]","viability, T/C [8] [%]","viability, T/C [9] [%]","viability, T/C [10] [%]","viability, T/C [11] [%]","viability, T/C [12] [%]","viability, T/C [13] [%]","viability, T/C [14] [%]","viability, T/C [15] [%]",other results
CC1COCCN1c1cc(-c2ccnn2C)c2ccnc(-c3ccn[nH]3)c2n1 (stereo not given) + C=CC(=O)N1CCN(c2nc(=O)n(-c3c(C)ccnc3C(C)C)c3nc(-c4c(O)cccc4F)c(F)cc23)C(C)C1,27.4,26.4,27.1,15.4,< 10,46.3,9.21,6.2,4.48,4.43,37.7,8.7,4.96,4.36,4.34,42,7.61,5.66,4.24,4.16,"viability, T/C (second compound 0.1 µM, first compound 0.01 µM): 76.3%; viability, T/C (second compound 0.316 µM, first compound 0.01 µM): 117%; viability, T/C (second compound 1 µM, first compound 0.01 µM): 101%; viability, T/C (second compound 3.16 µM, first compound 0.01 µM): 69%; viability, T/C [16]: 18.1%; viability, T/C [17]: 6.37%; viability, T/C [18]: 4.8%; viability, T/C [19]: 4.05%; viability, T/C [20]: 4.49%; viability, T/C (second compound 10 µM, first compound 0.01 µM): 21.2%; viability, T/C [21]: 5.73%; viability, T/C [22]: 4.31%; viability, T/C [23]: 4.56%; viability, T/C [24]: 4.61%; viability, T/C [25]: 4.96%"
CC1OCC2(CCN(c3cnc(Sc4ccnc(N)c4Cl)c(N)n3)CC2)C1N (stereo not given) + C=CC(=O)N1CCN(c2nc(=O)n(-c3c(C)ccnc3C(C)C)c3nc(-c4c(O)cccc4F)c(F)cc23)C(C)C1,> 10000,> 10000,> 10000,> 10000,< 31.6,109,79.5,110,90,76,87.3,94.9,90.2,100,96.4,82,106,96.3,78.6,95.5,"viability, T/C [26]: 74.5%; viability, T/C [27]: 78.5%; viability, T/C [28]: 73.8%; viability, T/C [16]: 70.2%; viability, T/C [17]: 71.1%; viability, T/C [18]: 72.6%; viability, T/C [19]: 63.2%; viability, T/C [20]: 68%; viability, T/C [29]: 60.2%; viability, T/C [21]: 30.3%; viability, T/C [22]: 33.1%; viability, T/C [23]: 23.9%; viability, T/C [24]: 25%; viability, T/C [25]: 28%; viability, T/C [30]: 21.9%"
CCNC(=O)CC1N=C(c2ccc(Cl)cc2)c2cc(OC)ccc2-n2c(C)nnc21 (stereo not given) + C=CC(=O)N1CCN(c2nc(=O)n(-c3c(C)ccnc3C(C)C)c3nc(-c4c(O)cccc4F)c(F)cc23)C(C)C1,133,139,185,140,< 31.6,84.2,55.5,31.9,11.2,1.81,83,54,37,11.2,1.1,78.3,60.4,41.4,6.68,2.48,"viability, T/C [26]: 0.76%; viability, T/C [27]: 0.76%; viability, T/C [28]: 0.75%; viability, T/C [16]: 69.9%; viability, T/C [17]: 52.9%; viability, T/C [18]: 37.9%; viability, T/C [19]: 9.47%; viability, T/C [20]: 2.07%; viability, T/C [29]: 0.56%; viability, T/C [21]: 44.4%; viability, T/C [22]: 28.8%; viability, T/C [23]: 6.81%; viability, T/C [24]: 2.7%; viability, T/C [25]: 1.1%; viability, T/C [30]: 0.62%"
Cn1nccc1Nc1nccc(-c2cc3c(s2)C(C)(C)N(CCN2CCOCC2)C3=O)n1 + C=CC(=O)N1CCN(c2nc(=O)n(-c3c(C)ccnc3C(C)C)c3nc(-c4c(O)cccc4F)c(F)cc23)C(C)C1,85.5,64.3,67.6,37.4,< 31.6,75.7,46.1,23.6,13.3,10.8,72.4,29.5,30.2,18.7,12.2,64.9,39.1,33.6,18.3,13.3,"viability, T/C [26]: 7.2%; viability, T/C [27]: 7.24%; viability, T/C [28]: 9.7%; viability, T/C [16]: 53%; viability, T/C [17]: 34.9%; viability, T/C [18]: 25.7%; viability, T/C [19]: 16.5%; viability, T/C [20]: 9.89%; viability, T/C [29]: 8.92%; viability, T/C [21]: 32.6%; viability, T/C [22]: 19.6%; viability, T/C [23]: 16.1%; viability, T/C [24]: 13.9%; viability, T/C [25]: 9.06%; viability, T/C [30]: 6.64%"
